Measured values from PubChem BioAssay (NCI).
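These data come from cells grown in 96-well plates and exposed to compound for 48 hours at five concentrations. GI50: concentration for 50% inhibition of growth. The concentration for full growth arrest is given as TGI.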

Key:
Assay in all cases: NCI-60 cell line screen, 48 h
[1] = system: 786-0 renal
[2] = system: NCI-H460 lung
[3] = system: MALME-3M melanoma
[4] = system: SK-OV-3 ovarian
[5] = system: SNB-19 CNS
[6] = system: NCI/ADR-RES ovarian
[7] = system: HL-60(TB) leukemia
[8] = system: MDA-MB-231 breast
[9] = system: RPMI-8226 leukemia
[10] = system: HS 578T breast
[11] = system: UACC-62 melanoma
[12] = system: SF-539 CNS
[13] = system: UACC-257 melanoma
[14] = system: SK-MEL-28 melanoma
[15] = system: PC-3 prostate
[16] = system: KM12 colon
[17] = system: SW-620 colon
[18] = system: SK-MEL-2 melanoma
[19] = system: HOP-62 NSCLC
[20] = system: COLO 205 colon
[21] = system: SNB-75 CNS
[22] = system: TK-10 renal
[23] = system: M14 melanoma
[24] = system: HCC-2998 colon
[25] = system: IGROV1 ovarian
[26] = system: OVCAR-4 ovarian
[27] = system: HCT-15 colon
[28] = system: A498 renal

OCCNCCNc1c2ccccc2nc2oc3ccccc3c12
GI50 [1]: 7.44 µM
TGI [1]: 22.2 µM
GI50 [2]: 4.44 µM
TGI [2]: 17.5 µM
GI50 [3]: 11.4 µM
TGI [3]: 41.8 µM
GI50 [4]: 13.1 µM
TGI [4]: 40.3 µM
GI50 [5]: 11.6 µM
TGI [5]: 36.2 µM
GI50 [6]: 14.5 µM
TGI [6]: 79.1 µM
GI50 [7]: 12.4 µM
TGI [7]: 50.5 µM
GI50 [8]: 10.3 µM
TGI [8]: 37.5 µM
GI50 [9]: 4.76 µM
TGI [9]: 21.6 µM
GI50 [10]: 6.8 µM
TGI [10]: 24.1 µM
GI50 [11]: 14.1 µM
TGI [11]: 31.5 µM
GI50 [12]: 8.04 µM
TGI [12]: 21 µM
GI50 [13]: 15.6 µM
TGI [13]: 33.2 µM
GI50 [14]: 12.1 µM
TGI [14]: 26.5 µM
GI50 [15]: 9.73 µM
TGI [15]: 34.7 µM
GI50 [16]: 8.31 µM
TGI [16]: > 100 µM
GI50 [17]: 5.23 µM
TGI [17]: 24.4 µM
GI50 [18]: 20.6 µM
TGI [18]: 43.9 µM
GI50 [19]: 6.62 µM
TGI [19]: 20.2 µM
GI50 [20]: 3.51 µM
TGI [20]: 16.4 µM
GI50 [21]: 13.2 µM
TGI [21]: 27.1 µM
GI50 [22]: 22.4 µM
TGI [22]: 86.8 µM
GI50 [23]: 12 µM
TGI [23]: 24.5 µM
GI50 [24]: 4.91 µM
TGI [24]: 20.9 µM
GI50 [25]: 7.3 µM
TGI [25]: 38.3 µM
GI50 [26]: 10.2 µM
TGI [26]: 34.6 µM
GI50 [27]: 7.57 µM
TGI [27]: 53.1 µM
GI50 [28]: 8.27 µM
